{"source": "patent US10413505B1", "about": "“Pharmaceutical compositions and methods of using the same” (priority 2017, dated 2019)", "key": {"[1]": {"assay": "Example 3 plasma pharmacokinetics, normal hepatic function vs hepatic impairment"}, "[2]": {"assay": "Example 2 plasma pharmacokinetics, normal renal function vs severe renal impairment", "details": "all samples in all individuals except four samples in one subject; Example 2"}, "[3]": {"details": "plasma, subjects with hepatic impairment, single intranasal dose"}}}
{"smiles": "COC(=O)[C@H]1[C@@H](OC(=O)c2ccccc2)C[C@@H]2CC[C@H]1N2", "note": "[norcocaine]", "values": [{"measurement": "plasma concentration (not measurable, below LLOQ)", "setting": "[1]; all subjects with normal hepatic function, all time points", "result": "< 0.1", "unit": "ng/mL"}, {"measurement": "plasma concentration, low levels detected", "setting": "[1]; multiple time points in three Grade B impaired subjects", "result": "≤ 0.31", "unit": "ng/mL"}, {"measurement": "AUC0→t (Geometric mean)", "setting": "[1]; [3]", "result": 0.753, "unit": "ng·h/mL"}, {"measurement": "AUC0→t (Mean)", "setting": "[1]; [3]", "result": 0.950, "unit": "ng·h/mL"}, {"measurement": "AUC0→t (Median)", "setting": "[1]; [3]", "result": 0.788, "unit": "ng·h/mL"}, {"measurement": "Clast (Geometric mean)", "setting": "[1]; [3]", "result": 0.126, "unit": "ng/mL"}, {"measurement": "Clast (Mean)", "setting": "[1]; [3]", "result": 0.127, "unit": "ng/mL"}, {"measurement": "Clast (Median)", "setting": "[1]; [3]", "result": 0.126, "unit": "ng/mL"}, {"measurement": "Cmax (Geometric mean)", "setting": "[1]; [3]", "result": 0.219, "unit": "ng/mL"}, {"measurement": "Cmax (Mean)", "setting": "[1]; [3]", "result": 0.227, "unit": "ng/mL"}, {"measurement": "Cmax (Median)", "setting": "[1]; [3]", "result": 0.212, "unit": "ng/mL"}, {"measurement": "Tlast (Geometric mean)", "setting": "[1]; [3]", "result": 5.24, "unit": "h"}, {"measurement": "Tlast (Mean)", "setting": "[1]; [3]", "result": 6.33, "unit": "h"}, {"measurement": "Tlast (Median)", "setting": "[1]; [3]", "result": 4.00, "unit": "h"}, {"measurement": "Tmax (Geometric mean)", "setting": "[1]; [3]", "result": 1.50, "unit": "h"}, {"measurement": "Tmax (Mean)", "setting": "[1]; [3]", "result": 1.50, "unit": "h"}, {"measurement": "Tmax (Median)", "setting": "[1]; [3]", "result": 1.50, "unit": "h"}, {"measurement": "t1/2 (Geometric mean)", "setting": "[1]; [3]", "result": 5.07, "unit": "h"}, {"measurement": "t1/2 (Mean)", "setting": "[1]; [3]", "result": 6.23, "unit": "h"}, {"measurement": "t1/2 (Median)", "setting": "[1]; [3]", "result": 6.23, "unit": "h"}, {"measurement": "plasma concentration", "setting": "[1]; single time point (7 min) in one Grade B subject", "result": 0.354, "unit": "ng/mL"}, {"measurement": "plasma concentration (below the LLOQ)", "setting": "[2]", "result": "< 0.1", "unit": "ng/mL"}]}
